Publication PMC10672842, “Anti-Trypanosoma cruzi Activity, Mutagenicity, Hepatocytotoxicity and Nitroreductase Enzyme Evaluation of 3-Nitrotriazole, 2-Nitroimidazole and Triazole Derivatives” (Molecules, 2023)
Like-named read-outs stand apart in the source and are kept apart here.

Test system: S. typhimurium TA100
Conditions: for Mutagenicity in the Ames test (verdict): TA100, absence or presence of metabolic activation; for Mutagen classification according to Claxton et al.: TA100, −S9 and +S9
Procedure: The compounds were tested in a reverse mutation assay preincubation protocol in the absence and presence of metabolic activation following standard protocols previously proposed by Maron and Ames. The histidine-dependent (his^−) strains TA98 and TA100 of Salmonella typhimurium were inoculated in 10 mL of Oxoid nutrient broth No. 2 containing 25 µg/mL ampicillin and incubated overnight (15–18 h) at 37 ± 1 °C on an orbital shaker (CT-712, Cientec, Belo Horizonte, MG, Brazil) at 150 rpm, obtaining a concentration of 1–2 × 10^9 cells/mL, confirmed by titration in nutrient agar plates. Briefly, 100 µL of stationary growth cultures of each strain were preincubated for 20 min on an orbital shaker (150 rpm) at 37 ± 1 °C, with 500 µL of 0.2 M phosphate buffer pH 7.4, or 500 µL of S9 mix 4% (Molecular Toxicology, Baltimore, MD, USA), and 100 µL of compound dilutions (0–5000 µM) or controls. DMSO 1% was used as a negative control. […] After incubation, 2 mL of top agar (0.7% agar, 0.5% NaCl, 0.05 mM L-histidine and D-biotin) at 45 ± 3 °C was added and gently mixed. The final mixture was poured on glucose minimal agar plates (1.5% agar, 10 g/L MgSO4·7H2O; 100 g/L of C6H8O7·H2O; 500 g/L K2HPO4; 175 g/L Na(NH4)HPO4·4H2O, 2% glucose) and incubated for 72 h at 37 ± 1 °C. The results were expressed as the mean of revertant colonies (His^+) per plate, standard deviation (SD) and mutagenicity induction fold (IF), calculated as the ratio between the number of colonies in the test group and the number of colonies in the negative control group. Mutagenic potency was calculated as the slope of the linear portion of the concentration–response function and expressed as revertants/µM. All assays were performed in triplicate and repeated at least two times. Statistical analyses were carried out in GraphPad Prism software (version 5.00, GraphPad Software, Boston, MA, USA).

## O=C(Cn1ccnc1[N+](=O)[O-])NCc1ccccc1 [BZN, benznidazole, reference compound]
TA100, +S9
  Mutagenic potency (slope of the linear portion of the concentration–response function): 1382.2 revertants/µM
TA100, +S9, 0.5 µM
  IF (induction factor): 0.9
  revertant His+ colonies, mean ± SD: 95 ± 3
TA100, +S9, 5 µM
  IF (induction factor): 1.0
  revertant His+ colonies, mean ± SD: 110 ± 8
TA100, +S9, 50 µM
  IF (induction factor): 2.5
  revertant His+ colonies, mean ± SD: 269 ± 13
TA100, +S9, 500 µM
  IF (induction factor): 8.6
  revertant His+ colonies, mean ± SD: 907 ± 10
  Mutagenicity in the Ames test (verdict): mutagenic
  Mutagen classification according to Claxton et al.: extremely high mutagen
TA100, −S9
  Mutagenic potency (slope of the linear portion of the concentration–response function): 1789.9 revertants/µM
TA100, −S9, 0.5 µM
  IF (induction factor): 1.0
  revertant His+ colonies, mean ± SD: 130 ± 6
TA100, −S9, 5 µM
  IF (induction factor): 1.6
  revertant His+ colonies, mean ± SD: 217 ± 13
TA100, −S9, 50 µM
  IF (induction factor): 6.2
  revertant His+ colonies, mean ± SD: 852 ± 40
TA100, −S9, 500 µM
  IF (induction factor): 28.2
  revertant His+ colonies, mean ± SD: 3848 ± 11
TA100, −S9, 5000 µM
  IF (induction factor): 53.0
  revertant His+ colonies, mean ± SD: 7264 ± 62

## O=[N+]([O-])c1ncn(CC(O)c2ccc(F)cc2F)n1 (stereo not shown) [Compound 8, 1-(2,4-Difluorophenyl)-2-(3-nitro-1H-1,2,4-triazol-1-yl)ethanol]
TA100, +S9, 0.5 µM
  IF (induction factor): 1.2
  revertant His+ colonies, mean ± SD: 129 ± 21
TA100, +S9, 5 µM
  IF (induction factor): 1.2
  revertant His+ colonies, mean ± SD: 128 ± 6
TA100, +S9, 50 µM
  IF (induction factor): 1.4
  revertant His+ colonies, mean ± SD: 150 ± 14
TA100, +S9, 500 µM
  IF (induction factor): 1.4
  revertant His+ colonies, mean ± SD: 145 ± 8
TA100, +S9, 5000 µM
  IF (induction factor): 1.7
  revertant His+ colonies, mean ± SD: 183 ± 9
  Mutagenicity in the Ames test (verdict): not mutagenic
TA100, −S9, 0.5 µM
  IF (induction factor): 1.1
  revertant His+ colonies, mean ± SD: 77 ± 5
TA100, −S9, 5 µM
  IF (induction factor): 1.1
  revertant His+ colonies, mean ± SD: 77 ± 15
TA100, −S9, 50 µM
  IF (induction factor): 1.1
  revertant His+ colonies, mean ± SD: 77 ± 13
TA100, −S9, 500 µM
  IF (induction factor): 1.3
  revertant His+ colonies, mean ± SD: 91 ± 8
TA100, −S9, 5000 µM
  IF (induction factor): 1.5
  revertant His+ colonies, mean ± SD: 108 ± 10

## O=[N+]([O-])c1nccn1CC(O)c1ccc(F)cc1F (stereo not shown) [Compound 9, 1-(2,4-Difluorophenyl)-2-(2-nitro-1H-imidazol-1-yl)ethanol]
TA100, +S9
  Mutagenic potency (slope of the linear portion of the concentration–response function): 292.1 revertants/µM
TA100, +S9, 0.5 µM
  IF (induction factor): 1.5
  revertant His+ colonies, mean ± SD: 159 ± 7
TA100, +S9, 5 µM
  IF (induction factor): 2.1
  revertant His+ colonies, mean ± SD: 218 ± 14
TA100, +S9, 50 µM
  IF (induction factor): 2.2
  revertant His+ colonies, mean ± SD: 233 ± 48
TA100, +S9, 500 µM
  IF (induction factor): 9.7
  revertant His+ colonies, mean ± SD: 1025 ± 16
TA100, +S9, 5000 µM
  IF (induction factor): 11.5
  revertant His+ colonies, mean ± SD: 1216 ± 113
  Mutagenicity in the Ames test (verdict): mutagenic
  Mutagen classification according to Claxton et al.: highly inductive mutagen
TA100, −S9
  Mutagenic potency (slope of the linear portion of the concentration–response function): 250.3 revertants/µM
TA100, −S9, 0.5 µM
  IF (induction factor): 1.0
  revertant His+ colonies, mean ± SD: 73 ± 5
TA100, −S9, 5 µM
  IF (induction factor): 1.2
  revertant His+ colonies, mean ± SD: 88 ± 7
TA100, −S9, 50 µM
  IF (induction factor): 2.3
  revertant His+ colonies, mean ± SD: 164 ± 16
TA100, −S9, 500 µM
  IF (induction factor): 4.9
  revertant His+ colonies, mean ± SD: 347 ± 24
TA100, −S9, 5000 µM
  IF (induction factor): 16.7
  revertant His+ colonies, mean ± SD: 1195 ± 160
